# Source: patent US12357641B2, “Identification of oleanolic acid and plant extract for glucose-6-phosphate dehydrogenase-related disorders including Bag3opathy” (Hong Kong Baptist University, priority 2022, dated 2025)
# Tests used:
# G6PD [1] = test: Oleanolic acid treatment in Bag3opathy patient: serum G6PD protein by ELISA; assay type: in vivo, human; conditions: oral capsules 180 mg/day for three months, before treatment 0.09 ng/mL, normal girls 7.25±9.38 ng/mL
# Protocol: The concentration of G6P in serum was determined by High Sensitivity G6P Assay Kit (Catalog #: K687-100, BioVision, Inc. USA) following the manufacturer's instruction. Briefly, a volume of 200 μL of samples was deproteinized with 10 kDa MWCO spin filter prior to the reaction. After adding 50 μL of the appropriate reaction mix into each 50 μL of filtrate, the reaction was incubated for 5 min at 37° C. and protected from light. Finally, the concentration of G6P was calculated according the fluorescence intensity (λex=535/λem=587) measured by fluorometer (EnVision 2104 Multilabel Reader, PerkinElmer, USA). The serum levels of G6PD (SEA716Hu, Cloud-Clone Corp), GPI, catalase (CAT), thioredoxin (TXN), and superoxide dismutase 1 (SOD1) were measured by Elisa Kits purchased from Cloud-Clone Crop Inc. (USA). Serum samples were diluted 100 folds in PBS for measurements of CAT and TXN, and were diluted 800 folds for SOD1 test. The activity of PGM was determined by Colorimetric Assay Kit from BioVision (Inc. USA). Samples were prepared and measured at 450 nm by Elisa reader (Benchmark Plus, BioRad, USA) depending on the manufacturer's instructions.
# The Bag3opathy patient (body weight of patient: 40 kg) was orally administrated with Chinese medicine supplements containing oleanolic acid (180 mg per day) to evaluate the effects of treatment on BAG3 associated MFM for 3 months. […]
# G6PD [2] = test: Oleanolic acid treatment in normal mice: G6PD protein by ELISA in serum, heart muscle and skeletal muscle; assay type: in vivo, mouse; conditions: for G6PD protein in heart muscle: control 0.36±0.26 ng/mg; for G6PD protein level in serum: control 1.79±0.99 ng/mL
# Protocol: BAG3 P209-KI mice were reproduced by mating between the P209L/+ male and female mice. All mice were maintained with free access to food and water in plastic cages at 22±2° C. and kept on a 12-h light/dark cycle. Animal welfare and experimental procedures were carried out in accordance with the related ethical regulations of Yunnan Minzu University. […] Heart muscle and skeletal muscle samples were obtained after cardiac perfusion with cold PBS. Muscle tissues were lysed into homogenate in ice-cold lysis buffer (150 mM NaCl, 50 mM Tris, pH7.5, 1% NP-40, 0.1% sodium deoxycholate) plus 1 mM PMSF. Samples were then sonicated on ice and centrifuged at 10,000 g for 5 min. The concentration of G6PD in serum, heart muscle, and skeletal muscle were determined by G6PD Elisa Kit (Catalog #: SEA716Mu, Cloud-Clone Corp. USA) following the manufacturer's instruction. The plate was read at 450 nm by the microplate reader (iMark, Biorad, USA). The concentration of the total protein from tissue samples was determined by the spectrophotometer (NanoDrop One, Thermo Scientific, USA).
# Seventeen normal male C57BL/6 mice, 6-8 weeks of age, were purchased from Hunan SJA Laboratory Animal Co., Ltd (Changsha, China). They were maintained with free access to food and water in plastic cages at 22±2° C. and kept on a 12-h light/dark cycle. Animal welfare and experimental procedures were carried out in accordance with the related ethical regulations of Yunnan Minzu University. Mice were randomly divided into one control group (n=6) and two dug treatment groups (n=5, 6). Oleanolic acid was suspended in 0.5% carboxymethylcellulose sodium (CMC-Na) solution with the concentration of 10 and 2.5 mg/mL. In the control and drug treatment groups, 0.5% CMC-Na and oleanolic acid (50, 200 mg/kg/day) was given orally for 10 days, respectively. On the 11th day, mice were sacrificed, and the serum and tissue samples were prepared and detected as the method described previously.
# [3] = test system: creatine kinase-MB (CK-MB); test: Oleanolic acid treatment in Bag3opathy patient: creatine kinase-MB (cardiac marker) in blood; assay type: in vivo, human; conditions: oral capsules 180 mg/day for three months, before treatment 24 U/L
# Protocol: The Bag3opathy patient (body weight of patient: 40 kg) was orally administrated with Chinese medicine supplements containing oleanolic acid (180 mg per day) to evaluate the effects of treatment on BAG3 associated MFM for 3 months. 3 mL serum was collected for analysis before and after the treatment. The trial was approved the Ethics Committee of Hong Kong Baptist University (HASC/15-16/0268) according to the principles of the Declaration of Helsinki, and obtained the consent form.
structure (smiles),measurement,setting,value
"CC1(C)CC[C@]2(C(=O)O)CC[C@]3(C)C(=CC[C@@H]4[C@@]5(C)CC[C@H](O)C(C)(C)[C@@H]5CC[C@]43C)[C@@H]2C1 [oleanolic acid, Oleanolic acid]",serum G6PD protein after treatment,G6PD [1],2.43 ng/mL
same,G6PD protein in skeletal muscle,"G6PD [2]; oral 50 mg/kg daily for ten days, control 0.11±0.04 ng/mg, p=0.035",0.19 ± 0.04 ng/mg
same,G6PD protein in heart muscle,"G6PD [2]; oral 50 mg/kg daily for ten days, p=0.36",0.54 ± 0.32 ng/mg
same,G6PD protein level in serum,"G6PD [2]; oral 50 mg/kg daily for ten days, p=0.140",3.74 ± 1.91 ng/mL
same,G6PD protein in heart muscle,"G6PD [2]; oral 200 mg/kg daily for ten days, p=0.011",0.93 ± 0.43 ng/mg
same,G6PD protein level in serum,"G6PD [2]; oral 200 mg/kg daily for ten days, p=0.049",4.47 ± 3.07 ng/mL
same,creatine kinase-MB (CK-MB) after treatment,[3],16 U/L
